Measured values reported in patent US20230167071A1, “COMPOUNDS WITH ANTIMALARIAL ACTIVITY” (UNIVERSITY OF PUERTO RICO, priority 2019, published 2023).

Legend:
mouse erythrocytes = test: Red blood cell lysis assay; assay type: cell-based; conditions: mouse erythrocytes 1% hematocrit, 24 hours, 0.2-100× fold EC50
Description: Materials and methods. Random-bred Swiss albino CD-1 female mice (Charles River Laboratories, Wilmington, Mass., USA) from 6-8 weeks old were used for the study. All mice procedures were approved by the Institutional Animal Care and Use Committee under the protocol number 2480108 at the AAALAC accredited University of Puerto Rico-Medical Sciences Campus Animal Resources Center. The mice work was done in strict accordance with the “Guide for the Care and Use of Laboratory Animals” (National-Research-Council, Current Edition) and regulations of the PHS Policy on Humane Care and Use of Laboratory Animals. Mice were acclimated for 1 week before initiation of experiments.
Compounds were analyzed at 10 serial dilutions using fresh mouse erythrocytes at 1% hematocrit in Dulbecco's PBS (Gibco®) in V-bottom microplates (Corning® 96 well TC-treated microplate). The plates were incubated for 24 hours at 37° C. followed by centrifugation at 2,000 rpm for 5 min, and 50 μl of supernatant was transferred to a fresh flat-bottom microplate (BD Falcon®). The amount of hemoglobin release in the supernatant was determined using the QuantiChrom™ Hemoglobin Assay Kit (DIHB-250; BioAssay Systems) by measuring the absorbance at 400 nm following the manufacturer's instructions. Saponin at 100 μg/ml was used as a positive control for 100% cell lysis, blood (1% hematocrit) with Dulbecco's Phosphate-Buffered Saline (DPBS) as a negative control for no cell lysis, and DPBS as a blank. Compounds were tested in three independent experiments in triplicate each.

PbGST = test: GST inhibition (CDNB/GSH) in crude P. berghei protein extract; assay type: biochemical, Plasmodium berghei; conditions: crude P. berghei protein extract, 0, 1, 10, and 50 μM
Procedure: Materials and methods. […] Parasite extracts were prepared and the pellets containing proteins were resuspended in buffer (3.5 mM MgCl2, 110 mM KCl, 40 mM NaCl, 20 mM HEPES, 6 mM EDTA, pH 7.4) with protease inhibitors (0.01 mg of leupeptin A, 0.001 mg of pepstatin A, 0.35 mg of PMSF). The parasite pellets were lysed by three freeze/thaw cycles (liquid nitrogen and 37° C. water bath) and protein content was determined using Bio-Rad DC Protein Assay. […] . The reaction was initiated by the addition of 1 mM GSH and the formation of S-(2,4-dinitrophenyl)glutathione was monitored spectrophotometrically at 340 nm (ε340 nm=0.0096 μM^−1cm^−1) using the SpectraMax M3 Microplate Reader (Molecular Devices).

[1] = tested on: P. falciparum multidrug-resistant Dd2 clone B2; test: In vitro susceptibility of P. falciparum, flow cytometry after 72 hours; assay type: cell-based, Plasmodium falciparum; conditions: P. falciparum Dd2 clone B2, 72 hours; read-out: EC50 (parasite growth)
Procedure: After 72 hours, parasite growth was assessed using flow cytometry on an Accuri C6 cytometer with parasites stained with SYBR green I and MitoTracker Deep Red. Compound CB-27 was tested in six independent experiments with technical replicates. The percentage of parasite growth was curve fitted against log-transformed drug concentrations and the EC50 was calculated using GraphPad Prism 6 software.

human placenta GST = molecular target: T1, human placenta GST (Homo sapiens, UniProt P09211); test: GST inhibition, human placenta GST; assay type: biochemical; conditions: human placenta GST, 0, 1, 10, and 50 μM
T1 construct: from tissue; host or cells: human placenta
T1 sequence (P09211 2-210 limits assumed): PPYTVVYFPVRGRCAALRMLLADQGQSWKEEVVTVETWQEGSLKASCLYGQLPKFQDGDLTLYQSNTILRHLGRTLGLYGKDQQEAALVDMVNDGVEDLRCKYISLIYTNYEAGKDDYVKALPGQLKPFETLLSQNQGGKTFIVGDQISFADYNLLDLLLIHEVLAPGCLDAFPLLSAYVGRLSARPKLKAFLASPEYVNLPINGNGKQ

Structure (SMILES) | hemolysis (lytic activity) (mouse erythrocytes) | inhibition of PbGST activity (PbGST) | EC50 [1] [nM] | inhibition of human GST activity (human placenta GST)
COc1cccc(C=NNC(=O)c2cc(-c3ccccc3)nc3ccccc23)c1O [CB-58] | did not hemolyze erythrocytes |  |  | 
O=C(Nc1cc(Cl)ccc1O)c1cc2nc(-c3ccccc3)cc(-c3ccccc3)n2n1 [CB-59] | did not hemolyze erythrocytes |  |  | 
O=C(N/N=C/c1ccccc1O)c1cc(-c2ccccc2)nc2ccccc12 [CB-53] | did not hemolyze erythrocytes |  |  | 
O=C(N/N=C/c1c(O)ccc2ccccc12)c1cc([N+](=O)[O-])cc([N+](=O)[O-])c1 [CB-61] | did not hemolyze erythrocytes |  |  | 
O=C(N/N=C/c1cc(Br)ccc1O)/C(=C/C=C/c1ccccc1)NC(=O)c1ccccc1 [CB-50] | did not hemolyze erythrocytes |  |  | 
O=C(NN=Cc1c(O)ccc2ccccc12)c1nc(-c2ccccc2)cc(-c2ccccc2)n1 [CB-27] | did not hemolyze erythrocytes | concentration-dependent inhibition | 958 | does not inhibit
COc1cccc(/C=N/NC(=O)c2nc(-c3ccccc3)cc(-c3ccccc3)n2)c1O [CB-41] | did not hemolyze erythrocytes |  |  | 
